Laboratory results: patent publication US20070049564A1 (Wyeth, priority 2005, published 2007)
In brackets after ≈: the same amount, converted by molar mass. Where two headings read alike, the source gives them in different places.

What was measured:
S. agalactiae GC 4564 = assay: MIC, broth microdilution; details: Streptococcus agalactiae, GC4564, S. agalactiae GC 4564
S. typhimurium GC 2172 = assay: MIC, broth microdilution; details: Salmonella enterica, TYPHIMURIUM, S. typhimurium GC 2172
c. albicans GC 3066 = assay: MIC, broth microdilution
E. coli GC 2271 = assay: MIC, broth microdilution; details: Escherichia coli, GC2271, E. coli GC 2271
S. aureus GC 6469 = assay: MIC, broth microdilution; details: Staphylococcus aureus, GC6469, S. aureus GC 6469
Description: (§1) Antimicrobial susceptibility testing. The in vitro activities of the antibiotics are determined by the broth microdilution method as recommended by the National Committee for Clinical Laboratory Standards (NCCLS) (1). Mueller-Hinton II broth (MHBII)(BBL Cockeysville, Md.) is the medium employed in the testing procedures. Microtiter plates containing serial dilutions of each antimicrobial agent are inoculated with each organism to yield the appropriate density (10^5 CFU/ml) in a 100 μl final volume. The plates are incubated for 18-22 hours at 35° C. in ambient air.
Representative compounds were first incubated in mouse serum for an hour prior to the in vitro testing against a panel of selected gram-positive and gram-negative bacteria strains. All compounds were also pre-incubated in water for an hour prior to testing as control.

E. coli GC 2270 = assay: MIC, broth microdilution; details: Escherichia coli, GC2270, E. coli GC 2270
E. coli GC 2235 = assay: MIC, broth microdilution; details: Escherichia coli, GC2235, E. coli GC 2235
E. faecalis GC 4555 = assay: MIC, broth microdilution; details: Enterococcus faecalis, GC4555, E. faecalis GC 4555
S. pyogenes GC 4563 = assay: MIC, broth microdilution; details: Streptococcus pyogenes, GC4563, S. pyogenes GC 4563
E. faecium GC 2243 = assay: MIC, broth microdilution; details: Enterococcus faecium, GC2243, E. faecium GC 2243
S. aureus GC 6335 = assay: MIC, broth microdilution; details: Staphylococcus aureus, GC6335, S. aureus GC 6335
E. coli GC 1073 = assay: MIC, broth microdilution; details: Escherichia coli, GC1073, E. coli GC 1073
S. aureus GC 1079 = assay: MIC, broth microdilution; details: Staphylococcus aureus, GC1079, S. aureus GC 1079
Description: as §1
Representative compounds were first incubated in mouse serum for an hour prior to the in vitro testing against a panel of selected gram-positive and gram-negative bacteria strains. All compounds were also pre-incubated in water for an hour prior to testing as control. Representative compounds of Formula I were incubated in human serum prior to MIC determination.

E. coli GC 2236 = assay: MIC, broth microdilution; details: Escherichia coli, GC2236, E. coli GC 2236
Staph. = assay: Range of MIC for Staph. strains, including MRSA; details: Staphylococcus aureus, MRSA
E. coli GC 3226 = assay: MIC, broth microdilution; details: Escherichia coli, GC3226, E. coli GC 3226
E. faecalis GC 2265 = assay: MIC, broth microdilution; details: Enterococcus faecalis, GC2265, E. faecalis GC 2265
E. coli GC 2233 = assay: MIC, broth microdilution; details: Escherichia coli, GC2233, E. coli GC 2233
E. faecium GC 4556 = assay: MIC, broth microdilution; details: Enterococcus faecium, GC4556, E. faecium GC 4556
[1] = c. albicans GC 3066, Water pre-incubation
[2] = read-out: Range of MIC, Staph (Mouse Serum)
[3] = read-out: Range of MIC, Staph (Water)

Row | Compound | MIC (S. agalactiae GC 4564; Mouse Serum pre-incubation) | MIC (S. agalactiae GC 4564; Water pre-incubation) | MIC (S. typhimurium GC 2172; Mouse Serum pre-incubation) | MIC (S. typhimurium GC 2172; Water pre-incubation) | MIC (c. albicans GC 3066; Candida albicans, GC3066) | MIC (c. albicans GC 3066; [1]) | MIC (E. coli GC 2271; Mouse Serum pre-incubation) | MIC (E. coli GC 2271; Water pre-incubation) | MIC (S. aureus GC 6469; Mouse Serum pre-incubation) | MIC (S. aureus GC 6469; Water pre-incubation) | MIC (E. coli GC 2270; Mouse Serum pre-incubation) | MIC (E. coli GC 2270; Water pre-incubation) | MIC (E. coli GC 2235; Mouse Serum pre-incubation) | MIC (E. coli GC 2235; Water pre-incubation) | MIC (E. faecalis GC 4555; Mouse Serum pre-incubation) | MIC (E. faecalis GC 4555; Water pre-incubation) | MIC (S. pyogenes GC 4563; Mouse Serum pre-incubation) | MIC (S. pyogenes GC 4563; Water pre-incubation) | MIC (E. faecium GC 2243; Mouse Serum pre-incubation) | MIC (E. faecium GC 2243; Water pre-incubation) | other results
1 | CCCN(CC(=O)Nc1cc(N(C)C)c2c(c1O)C(=O)C1=C(O)[C@]3(O)C(=O)C(C(N)=O)=C(O)[C@@H](N(C)C)[C@@H]3C[C@@H]1C2)C(=O)OCc1ccccc1 [Example 14, benzyl 2-{[(5aR,6aS,7S,10aS)-9-(aminocarbonyl)-4,7-bis(dimethylamino)-1,8,10a,11-tetrahydroxy-10,12-dioxo-5,5a,6,6a,7,10,10a,12-octahydrotetracen-2-yl]amino}-2-oxoethyl(propyl)carbamate] | 16 µg/mL (≈ 22.7 µM) | 16 µg/mL (≈ 22.7 µM) | > 64 µg/mL | > 64 µg/mL | > 64 µg/mL | >64 UG/ML | > 64 µg/mL | > 64 µg/mL | 2 µg/mL (≈ 2.83 µM) | 4 µg/mL (≈ 5.67 µM) | > 64 µg/mL | > 64 µg/mL | 32 µg/mL (≈ 45.3 µM) | 64 µg/mL (≈ 90.7 µM) | 2 µg/mL (≈ 2.83 µM) | 8 µg/mL (≈ 11.3 µM) | 2 µg/mL (≈ 2.83 µM) | 4 µg/mL (≈ 5.67 µM) | 2 µg/mL (≈ 2.83 µM) | 4 µg/mL (≈ 5.67 µM) | MIC (S. aureus GC 6335; Mouse Serum pre-incubation): 1 µg/mL (≈ 1.42 µM); MIC (S. aureus GC 6335; Water pre-incubation): 4 µg/mL (≈ 5.67 µM); MIC (E. coli GC 1073; Mouse Serum pre-incubation): > 64 µg/mL; MIC (E. coli GC 1073; Water pre-incubation): > 64 µg/mL; MIC (S. aureus GC 1079; Mouse Serum pre-incubation): 1 µg/mL (≈ 1.42 µM); MIC (S. aureus GC 1079; Water pre-incubation): 2 µg/mL (≈ 2.83 µM); MIC (E. coli GC 2236; Mouse Serum pre-incubation): > 64 µg/mL; MIC (E. coli GC 2236; Water pre-incubation): > 64 µg/mL; MIC (Staph.; [2]): 1 to 8 µg/mL (≈ 1.42 to 11.3 µM); MIC (Staph.; [3]): 2 to 8 µg/mL (≈ 2.83 to 11.3 µM); MIC (E. coli GC 3226; Mouse Serum pre-incubation): > 64 µg/mL; MIC (E. coli GC 3226; Water pre-incubation): > 64 µg/mL; MIC (E. faecalis GC 2265; Mouse Serum pre-incubation): 2 µg/mL (≈ 2.83 µM); MIC (E. faecalis GC 2265; Water pre-incubation): 8 µg/mL (≈ 11.3 µM); MIC (E. coli GC 2233; Mouse Serum pre-incubation): > 64 µg/mL; MIC (E. coli GC 2233; Water pre-incubation): > 64 µg/mL; MIC (E. faecium GC 4556; Mouse Serum pre-incubation): 4 µg/mL (≈ 5.67 µM); MIC (E. faecium GC 4556; Water pre-incubation): 8 µg/mL (≈ 11.3 µM)
2 | CCCN(CC(=O)Nc1cc(N(C)C)c2c(c1O)C(=O)C1=C(O)[C@]3(O)C(=O)C(C(N)=O)=C(O)[C@@H](N(C)C)[C@@H]3C[C@@H]1C2)C(=O)OCC(C)C [Example 16, isobutyl 2-{[(5aR,6aS,7S,10aS)-9-(aminocarbonyl)-4,7-bis(dimethylamino)-1,8,10a,11-tetrahydroxy-10,12-dioxo-5,5a,6,6a,7,10,10a,12-octahydrotetracen-2-yl]amino}-2-oxoethyl(propyl)carbamate] | 16 µg/mL (≈ 23.8 µM) | 16 µg/mL (≈ 23.8 µM) | > 64 µg/mL | > 64 µg/mL | > 64 µg/mL | >64 UG/ML | > 64 µg/mL | > 64 µg/mL | 4 µg/mL (≈ 5.95 µM) | 8 µg/mL (≈ 11.9 µM) | > 64 µg/mL | > 64 µg/mL | 16 µg/mL (≈ 23.8 µM) | 64 µg/mL (≈ 95.3 µM) | 4 µg/mL (≈ 5.95 µM) | 8 µg/mL (≈ 11.9 µM) | 4 µg/mL (≈ 5.95 µM) | 8 µg/mL (≈ 11.9 µM) | 4 µg/mL (≈ 5.95 µM) | 8 µg/mL (≈ 11.9 µM) | MIC (S. aureus GC 6335; Mouse Serum pre-incubation): 4 µg/mL (≈ 5.95 µM); MIC (S. aureus GC 6335; Water pre-incubation): 4 µg/mL (≈ 5.95 µM); MIC (E. coli GC 1073; Mouse Serum pre-incubation): > 64 µg/mL; MIC (E. coli GC 1073; Water pre-incubation): > 64 µg/mL; MIC (S. aureus GC 1079; Mouse Serum pre-incubation): 2 µg/mL (≈ 2.98 µM); MIC (S. aureus GC 1079; Water pre-incubation): 4 µg/mL (≈ 5.95 µM); MIC (E. coli GC 2236; Mouse Serum pre-incubation): 64 µg/mL (≈ 95.3 µM); MIC (E. coli GC 2236; Water pre-incubation): > 64 µg/mL; MIC (Staph.; [2]): 2 to 8 µg/mL (≈ 2.98 to 11.9 µM); MIC (Staph.; [3]): 4 to 8 µg/mL (≈ 5.95 to 11.9 µM); MIC (E. coli GC 3226; Mouse Serum pre-incubation): 64 µg/mL (≈ 95.3 µM); MIC (E. coli GC 3226; Water pre-incubation): > 64 µg/mL; MIC (E. faecalis GC 2265; Mouse Serum pre-incubation): 4 µg/mL (≈ 5.95 µM); MIC (E. faecalis GC 2265; Water pre-incubation): 8 µg/mL (≈ 11.9 µM); MIC (E. coli GC 2233; Mouse Serum pre-incubation): > 64 µg/mL; MIC (E. coli GC 2233; Water pre-incubation): > 64 µg/mL; MIC (E. faecium GC 4556; Mouse Serum pre-incubation): 4 µg/mL (≈ 5.95 µM); MIC (E. faecium GC 4556; Water pre-incubation): 8 µg/mL (≈ 11.9 µM)
